# Data published in US20060069132A1, “Azolecarboxamide herbicides” (priority 2004, published 2006).
# What was measured:
# winter barley = assay: Test C postemergence herbicide test; assay type: in vivo, Hordeum vulgare
# In short: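 Scoring by eye, 12–14 days post-treatment, greenhouse-held plants vs. controls; 0 no effect, 100 complete control. Sprayed at 1–4 leaves (2–18 cm); paddy barnyardgrass at 2 leaves, flooded.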
# blackgrass = assay: Test C postemergence herbicide test; assay type: in vivo, Alopecurus myosuroides
# In short: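 After a postemergence application at 1 to 4 leaves (plants 2–18 cm high), or at 2 leaves for barnyardgrass in flooded paddy, plants stayed in the greenhouse for 12 to 14 days. Damage was then judged visually relative to control plants, with 100 indicating complete control.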
# kochia = assay: Test E pre-/postemergence herbicide test; assay type: in vivo, Kochia scoparia; conditions: Preemergence
# Excerpt: (§1) Seeds of plant species selected from bipinnate beggarticks (Bidens bipinnata L.), hairy beggarticks (Bidens radiata Thuill.), bermudagrass (Cynodon dactylon (L.) Pers.), Surinam grass (Urochloa decumbens (Staph) R. D. Webster, previously named Brachiaria decumbens Stapf), large crabgrass (Digitaria sanguinalis (L.) Scop.), green foxtail (Setaria viridis (L.) P. Beauv.), goosegrass (Eleusine indica (L.) Gaertn.), johnsongrass (Sorghum halepense (L.) Pers.), kochia (Kochia scoparia (L.) Schrad.), pitted morningglory (Ipomoea lacunosa L.), purple nutsedge (Cyperus rotundus L.), common ragweed (Ambrosia elatior L.), mustard (Brassica nigra (L.) W. D. J. Koch), guineagrass (Panicum maximum Jacq.), dallisgrass (Paspalum dilatatum Poir.), barnyardgrass (Echinochloa crus-galli (L). P. Beauv.), southern sandbur (Cenchrus echinatus L.), common sowthistle (Sonchus oleraceous L.), prickly sida (Sida spinosa L.), Italian ryegrass (Lolium multiflorum Lam.), common purslane (Portulaca oleracea L.), broadleaf signalgrass (Brachiaria platyphylla (Griseb.) Nash), common groundsel (Senecio vulgaris L.), common chickweed (Stellaria media (L.) Vill/Cyr.), tropical spiderwort (Commelina benghalensis L.), annual bluegrass (Poa annua L.), downy bromegrass (Bromus tectorum L.), itchgrass (Rottboellia cochinchinensis (L.) L.f.), quackgrass (Elytrigia repens (L.) Nevski), Canada horseweed (Erigeron Canadensis L.), field bindweed (Convolvulus arvensis L.), spotted spurge (Euphorbia maculata L.), common mallow (Malva sylvestris (=s silvestris) L.), and Russian thistle (Salsola kali L. ssp. Ruthenica (Iljin) Soo) were planted and treated preemergence with test chemicals formulated in a non-phytotoxic solvent mixture which included a surfactant.
# (§2) At the same time, plants selected from these weed species were treated with postemergence applications of some of the test chemicals formulated in the same manner. Plants ranged in height from 2 to 18 cm (1- to 4-leaf stage) for postemergence treatments. Treated plants and controls were maintained in a greenhouse for 12 to 14 days, after which time all species were compared to controls and visually evaluated. Plant response ratings, summarized in Table E, are based on a scale of 0 to 100 where 0 is no effect and 100 is complete control. A dash (-) response means no test result.
# pitted morningglory = assay: Test E pre-/postemergence herbicide test; assay type: in vivo, Ipomoea lacunosa
# Excerpt: as §1, §2
# purple nutsedge = assay: Test E pre-/postemergence herbicide test; assay type: in vivo, Cyperus rotundus
# Excerpt: as §1, §2
# dallisgrass = assay: Test E pre-/postemergence herbicide test; assay type: in vivo, Paspalum dilatatum
# Excerpt: as §1, §2
# broadleaf signalgrass = assay: Test E pre-/postemergence herbicide test; assay type: in vivo, Brachiaria platyphylla
# Excerpt: as §1, §2
# tropical spiderwort = assay: Test E pre-/postemergence herbicide test; assay type: in vivo, Commelina benghalensis
# Excerpt: as §1, §2
# field bindweed = assay: Test E pre-/postemergence herbicide test; assay type: in vivo, Convolvulus arvensis
# Excerpt: as §1, §2
# [1] = Postemergence, 125 g ai/ha, scale 0 to 100, 0 no effect, 100 complete control
# [2] = Postemergence, 250 g ai/ha, scale 0 to 100
# [3] = postemergence, 31 g ai/ha, scale 0 to 100
# [4] = postemergence, 62 g ai/ha, scale 0 to 100 (0 no effect, 100 complete control)
# [5] = postemergence, 125 g ai/ha, scale 0 to 100
# [6] = postemergence, 62 g ai/ha, scale 0 to 100
# [7] = Postemergence, 500 g ai/ha, scale 0 to 100
# [8] = Postemergence, 250 g ai/ha, scale 0 to 100, 0 no effect, 100 complete control
# [9] = 250 g ai/ha, scale 0 (no effect) to 100 (complete control)
# [10] = 500 g ai/ha, scale 0 (no effect) to 100 (complete control)
# [11] = Preemergence, 62 g ai/ha, scale 0 to 100
# [12] = Preemergence, 125 g ai/ha, scale 0 to 100
# [13] = Preemergence, 250 g ai/ha, scale 0 (no effect) to 100 (complete control)
# [14] = Preemergence, 500 g ai/ha, scale 0 (no effect) to 100 (complete control)
smiles,measurement,setting,value
CCn1nc(C(C)(C)C)cc1C(=O)Nc1cccc(C(=O)NCC2CC2)c1 [Compound 62],"Plant response rating, Barley, Winter",winter barley; [1],10
same,"Barley, Winter plant response rating",winter barley; [2],10
same,"Plant response rating, Barley, Winter",winter barley; [3],0
same,"Plant response rating, Barley, Winter",winter barley; [4],10
same,Blackgrass plant response rating,blackgrass; [2],40
same,"Plant response rating, Blackgrass",blackgrass; [5],40
same,"Plant response rating, Blackgrass",blackgrass; [3],20
same,"Plant response rating, Blackgrass",blackgrass; [6],40
CCCCOc1cccc(NC(=O)c2cc(C(C)(C)C)nn2CC)c1 [Compound 137],"Barley, Winter plant response rating",winter barley; [7],30
same,"Plant response rating, Barley, Winter",winter barley; [1],20
same,"Plant response rating, Barley, Winter",winter barley; [8],20
same,"Plant response rating, Barley, Winter",winter barley; [4],10
same,Blackgrass plant response rating,blackgrass; [7],60
same,"Plant response rating, Blackgrass",blackgrass; [8],40
same,"Plant response rating, Blackgrass",blackgrass; [5],40
same,"Plant response rating, Blackgrass",blackgrass; [6],40
CCNC(=O)c1ccc(F)c(NC(=O)c2cn(C(C)(C)C)nc2CC)c1 [Compound 193],"Plant response rating, Kochia","kochia; 62 g ai/ha, scale 0 to 100",100
same,"Plant response rating, Kochia","kochia; 125 g ai/ha, scale 0 to 100",100
same,"Plant response rating, Kochia",kochia; [9],100
same,"Plant response rating, Kochia",kochia; [10],100
same,"Plant response rating, Morningglory",pitted morningglory; [7],75
same,"Plant response rating, Morningglory",pitted morningglory; [2],60
same,"Plant response rating, Morningglory",pitted morningglory; [11],0
same,"Plant response rating, Morningglory",pitted morningglory; [12],20
same,"Plant response rating, Morningglory",pitted morningglory; [13],50
same,"Plant response rating, Morningglory",pitted morningglory; [14],70
same,"Plant response rating, Morningglory",pitted morningglory; [5],60
same,"Plant response rating, Morningglory",pitted morningglory; [6],30
same,"Plant response rating, Nutsedge, Purple",purple nutsedge; [7],70
same,"Plant response rating, Nutsedge, Purple",purple nutsedge; [2],40
same,"Plant response rating, Nutsedge, Purple",purple nutsedge; [11],0
same,"Plant response rating, Nutsedge, Purple",purple nutsedge; [12],30
same,"Plant response rating, Nutsedge, Purple",purple nutsedge; [13],50
same,"Plant response rating, Nutsedge, Purple",purple nutsedge; [14],80
same,"Plant response rating, Nutsedge, Purple",purple nutsedge; [5],20
same,"Plant response rating, Nutsedge, Purple",purple nutsedge; [6],0
same,"Plant response rating, Dallisgrass",dallisgrass; [7],90
same,"Plant response rating, Dallisgrass",dallisgrass; [2],90
same,"Plant response rating, Dallisgrass",dallisgrass; [11],40
same,"Plant response rating, Dallisgrass",dallisgrass; [12],95
same,"Plant response rating, Dallisgrass",dallisgrass; [13],95
same,"Plant response rating, Dallisgrass",dallisgrass; [14],100
same,"Plant response rating, Dallisgrass",dallisgrass; [5],40
same,"Plant response rating, Dallisgrass",dallisgrass; [6],10
same,"Plant response rating, Signalgrass",broadleaf signalgrass; [7],80
same,"Plant response rating, Signalgrass",broadleaf signalgrass; [2],75
same,"Plant response rating, Signalgrass",broadleaf signalgrass; [11],10
same,"Plant response rating, Signalgrass",broadleaf signalgrass; [12],60
same,"Plant response rating, Signalgrass",broadleaf signalgrass; [13],70
same,"Plant response rating, Signalgrass",broadleaf signalgrass; [14],95
same,"Plant response rating, Signalgrass",broadleaf signalgrass; [5],50
same,"Plant response rating, Signalgrass",broadleaf signalgrass; [6],10
same,"Plant response rating, Spiderwort",tropical spiderwort; [7],70
same,"Plant response rating, Spiderwort",tropical spiderwort; [2],50
same,"Plant response rating, Spiderwort",tropical spiderwort; [12],80
same,"Plant response rating, Spiderwort",tropical spiderwort; [13],90
same,"Plant response rating, Spiderwort",tropical spiderwort; [14],95
same,"Plant response rating, Spiderwort",tropical spiderwort; [5],20
same,"Plant response rating, Bindweed, Field",field bindweed; [7],50
same,"Plant response rating, Bindweed, Field",field bindweed; [2],50
same,"Plant response rating, Bindweed, Field",field bindweed; [11],50
same,"Plant response rating, Bindweed, Field",field bindweed; [12],50
same,"Plant response rating, Bindweed, Field",field bindweed; [13],80
same,"Plant response rating, Bindweed, Field",field bindweed; [14],85
same,"Plant response rating, Bindweed, Field",field bindweed; [6],20
"CCc1nn(C(C)(C)C)cc1C(=O)Nc1cc(C(=O)N(C)C)ccc1F [Compound 222, N-[5-[(dimethylamino)carbonyl]-2-fluorophenyl]-1-(1,1-dimethylethyl)-3-ethyl-1H-pyrazole-4-carboxamide]","Plant response rating, Kochia","kochia; 62 g ai/ha, scale 0 to 100",30
same,"Plant response rating, Kochia","kochia; 125 g ai/ha, scale 0 to 100",100
same,"Plant response rating, Kochia",kochia; [9],100
same,"Plant response rating, Kochia",kochia; [10],100
same,"Plant response rating, Morningglory",pitted morningglory; [7],90
same,"Plant response rating, Morningglory",pitted morningglory; [2],60
same,"Plant response rating, Morningglory",pitted morningglory; [12],30
same,"Plant response rating, Morningglory",pitted morningglory; [13],40
same,"Plant response rating, Morningglory",pitted morningglory; [14],95
same,"Plant response rating, Morningglory",pitted morningglory; [5],40
same,"Plant response rating, Morningglory",pitted morningglory; [6],20
same,"Plant response rating, Nutsedge, Purple",purple nutsedge; [2],30
same,"Plant response rating, Nutsedge, Purple",purple nutsedge; [11],10
same,"Plant response rating, Nutsedge, Purple",purple nutsedge; [12],40
same,"Plant response rating, Nutsedge, Purple",purple nutsedge; [13],70
same,"Plant response rating, Nutsedge, Purple",purple nutsedge; [14],80
same,"Plant response rating, Nutsedge, Purple",purple nutsedge; [5],10
same,"Plant response rating, Nutsedge, Purple",purple nutsedge; [6],10
same,"Plant response rating, Dallisgrass",dallisgrass; [7],85
same,"Plant response rating, Dallisgrass",dallisgrass; [2],85
same,"Plant response rating, Dallisgrass",dallisgrass; [11],50
same,"Plant response rating, Dallisgrass",dallisgrass; [12],80
same,"Plant response rating, Dallisgrass",dallisgrass; [13],100
same,"Plant response rating, Dallisgrass",dallisgrass; [14],100
same,"Plant response rating, Dallisgrass",dallisgrass; [5],60
same,"Plant response rating, Dallisgrass",dallisgrass; [6],30
same,"Plant response rating, Signalgrass",broadleaf signalgrass; [7],85
same,"Plant response rating, Signalgrass",broadleaf signalgrass; [2],80
same,"Plant response rating, Signalgrass",broadleaf signalgrass; [11],10
same,"Plant response rating, Signalgrass",broadleaf signalgrass; [12],60
same,"Plant response rating, Signalgrass",broadleaf signalgrass; [13],95
same,"Plant response rating, Signalgrass",broadleaf signalgrass; [14],95
same,"Plant response rating, Signalgrass",broadleaf signalgrass; [5],40
same,"Plant response rating, Signalgrass",broadleaf signalgrass; [6],10
same,"Plant response rating, Spiderwort",tropical spiderwort; [2],60
same,"Plant response rating, Spiderwort",tropical spiderwort; [14],95
same,"Plant response rating, Spiderwort",tropical spiderwort; [5],40
same,"Plant response rating, Bindweed, Field",field bindweed; [2],95
same,"Plant response rating, Bindweed, Field",field bindweed; [12],40
same,"Plant response rating, Bindweed, Field",field bindweed; [13],95
same,"Plant response rating, Bindweed, Field",field bindweed; [14],95
same,"Plant response rating, Bindweed, Field",field bindweed; [5],75
same,"Plant response rating, Bindweed, Field",field bindweed; [6],60
CCOC(=O)c1cccc(NC(=O)c2cc(C3(C)CC3)nn2CC)c1 [Compound 295],"Plant response rating, Barley, Winter",winter barley; [1],35
same,"Plant response rating, Barley, Winter",winter barley; [8],35
same,"Plant response rating, Barley, Winter",winter barley; [3],35
same,"Plant response rating, Barley, Winter",winter barley; [4],35
same,"Plant response rating, Blackgrass",blackgrass; [8],65
same,"Plant response rating, Blackgrass",blackgrass; [5],65
same,"Plant response rating, Blackgrass",blackgrass; [3],45
same,"Plant response rating, Blackgrass",blackgrass; [6],45
CCn1nc(C2(C)CC2)cc1C(=O)Nc1cc(C(=O)N2CC=CC2)ccc1F [Compound 301],"Barley, Winter plant response rating",winter barley; [7],40
same,"Plant response rating, Barley, Winter",winter barley; [1],30
same,"Plant response rating, Barley, Winter",winter barley; [8],30
same,"Plant response rating, Barley, Winter",winter barley; [4],30
same,Blackgrass plant response rating,blackgrass; [7],45
same,"Plant response rating, Blackgrass",blackgrass; [8],90
same,"Plant response rating, Blackgrass",blackgrass; [5],75
same,"Plant response rating, Blackgrass",blackgrass; [6],55
CCn1nc(C(C)(C)C)cc1C(=O)Nc1cc(OC(F)(F)F)ccc1F [Compound 338],"Barley, Winter plant response rating",winter barley; [7],40
same,"Plant response rating, Barley, Winter",winter barley; [1],30
same,"Plant response rating, Barley, Winter",winter barley; [8],35
same,"Plant response rating, Barley, Winter",winter barley; [4],20
same,Blackgrass plant response rating,blackgrass; [7],65
same,"Plant response rating, Blackgrass",blackgrass; [8],50
same,"Plant response rating, Blackgrass",blackgrass; [5],45
same,"Plant response rating, Blackgrass",blackgrass; [6],40
CCn1nc(C(C)(C)C)cc1C(=O)Nc1cccc(OS(=O)(=O)CC)c1 [Compound 408],"Barley, Winter plant response rating",winter barley; [7],40
same,"Plant response rating, Barley, Winter",winter barley; [1],30
same,"Plant response rating, Barley, Winter",winter barley; [8],35
same,"Plant response rating, Barley, Winter",winter barley; [4],30
same,Blackgrass plant response rating,blackgrass; [7],70
same,"Plant response rating, Blackgrass",blackgrass; [8],65
same,"Plant response rating, Blackgrass",blackgrass; [5],50
same,"Plant response rating, Blackgrass",blackgrass; [6],40
